Results on 22 molecules are retold here after US20230373937A1, “INHIBITORS OF SPINSTER HOMOLOG 2 (SPNS2) FOR USE IN THERAPY” (University of Virginia Patent Foundation, priority 2020, published 2023).

Counter-ions that a name gives are not always drawn.

This test has as its target T1, SPNS2 (Mus musculus, UniProt Q91VM4).
T1 construct: expressed in transfected cells; host or cells: HeLa or U937 cells
T1 sequence (Q91VM4 1-549): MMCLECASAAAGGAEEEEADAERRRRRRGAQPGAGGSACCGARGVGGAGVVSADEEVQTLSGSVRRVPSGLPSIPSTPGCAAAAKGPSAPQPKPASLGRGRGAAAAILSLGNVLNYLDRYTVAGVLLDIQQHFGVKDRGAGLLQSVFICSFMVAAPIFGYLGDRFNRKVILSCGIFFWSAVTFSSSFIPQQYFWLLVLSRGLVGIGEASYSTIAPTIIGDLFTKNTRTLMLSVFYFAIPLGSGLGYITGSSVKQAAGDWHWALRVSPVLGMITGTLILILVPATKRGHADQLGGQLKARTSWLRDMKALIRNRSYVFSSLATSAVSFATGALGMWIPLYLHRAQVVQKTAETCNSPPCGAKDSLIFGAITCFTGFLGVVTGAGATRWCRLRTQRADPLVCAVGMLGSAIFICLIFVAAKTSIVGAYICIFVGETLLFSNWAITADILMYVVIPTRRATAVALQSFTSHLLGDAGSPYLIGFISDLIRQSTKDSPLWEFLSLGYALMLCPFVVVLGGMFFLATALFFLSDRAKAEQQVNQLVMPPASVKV
The test can be described thus: S1P transporter assay: S1P release from whole cells expressing SPNS2. The format is cell-based. Conditions: HeLa or U937 cells expressing mouse SPNS2; 18 hours; S1P in media measured by LC-MS; read-out: IC50 (in vitro inhibition against SPNS2). As to the method:
Transporter assays are vectorial and therefore require measurement of the transported analyte in different compartments. The S1P transporter SPNS2 only exports S1P, which obviates measuring uptake of S1P into transporter-expressing cells. Thus, transporter activity was determined by quantifying S1P release from whole cells expressing SPNS2. SPNS2 inhibitor potency was assessed using whole cell assays. HeLa or U937 cells expressing mouse SPNS2 were used to determine inhibitor potency (IC50). Cells were plated onto 12 well plates and assayed when the cell monolayers became confluent. Cell growth media (RPMI-1640 containing 10% fetal bovine serum) was replaced with 2 mL of serum-free media (RPMI-1640) containing fatty acid free bovine serum albumin (BSA) (0.2% w/v) and supplemented with 4-deoxypyridoxine (DOP) (1 mM), NaF (2 mM), Na3VO4 (0.2 mM) to inhibit S1P degradation. Test articles (1×10-9-1×10^-4 M) were assayed in duplicate or triplicate. After 18 hours, media was collected, an internal recovery standard (0.005 mL of 5×10^-7 M deuterated (d7) S1P in methanol) was added, the BSA was precipitated with trichloroacetic acid and the bound S1P extracted with methanol. S1P and S1P-d7 were measured by liquid chromatography mass spectrometry. Inhibitor potency at the human SPNS2 ortholog was determined by an analogous assay using U-937 cells, which endogenously express human SPNS2.
One may read the IC50 as the concentration that inhibits the measured activity by half. `CCCCCCCCCCc1ccc(-c2noc(CC(O)CN3CCCC3)n2)cc1` (stereo not shown) [Compound 6b, 1-(3-(4-decylphenyl)-1,2,4-oxadiazol-5-yl)-3-(pyrrolidin-1-yl)propan-2-ol hydrochloride]: the concentration for half-maximal inhibition (IC50) is greater than 2 µM.

In the case of `CCCCCCCCCCc1ccc(-c2noc(CNC(=O)[C@@H](N)CC(C)C)n2)cc1` [Compound 9ad, (S)-2-amino-N-((3-(4-decylphenyl)-1,2,4-oxadiazol-5-yl)methyl)-4-methylpentanamide hydrochloride], the IC50 was greater than 2 µM.

Consider `CCCCCCCCCCc1ccc(-c2noc(CC(CN)OC(C)=O)n2)cc1` (stereo not shown) [Compound 5n, 1-amino-3-(3-(4-decylphenyl)-1,2,4-oxadiazol-5-yl)propan-2-yl acetate hydrochloride], for which the half-maximal inhibitory concentration (IC50) was greater than 2 µM.

Regarding `CCCCCCCOc1ccc2cc(-c3noc([C@@H]4CCNC4)n3)ccc2c1` [Compound 5x, (R)-3-(6-(heptyloxy)naphthalen-2-yl)-5-(pyrrolidin-3-yl)-1,2,4-oxadiazole hydrochloride], the IC50 is greater than 2 µM.

Regarding `CCCCCCCCCOc1ccc(-c2noc(CCCN)n2)cc1C(F)(F)F` [Compound 5u, 3-(3-(4-(nonyloxy)-3-(trifluoromethyl)phenyl)-1,2,4-oxadiazol-5-yl)propan-1-amine hydrochloride], the concentration for half-maximal inhibition (IC50) was greater than 2 µM.

`CCCCCCCCCc1ccc(Cc2noc(CCCN)n2)cc1` [Compound 5r, 3-(3-(4-nonylbenzyl)-1,2,4-oxadiazol-5-yl)propan-1-amine hydrochloride]: the half-inhibitory concentration (IC50) is greater than 2 µM.

Take `CCCCCCCCCCc1ccc(-c2noc(CNC(=O)[C@@H](N)C(C)C)n2)cc1` [Compound 9f, (S)-2-amino-N-((3-(4-decylphenyl)-1,2,4-oxadiazol-5-yl)methyl)-3-methylbutanamide hydrochloride]: the IC50 was greater than 2 µM.

As to `CCCCNC(=O)c1ccc(-c2noc([C@@H]3CCNC3)n2)cc1` [Compound 13a, (R)—N-butyl-4-(5-(pyrrolidin-3-yl)-1,2,4-oxadiazol-3-yl)benzamide hydrochloride], the half-inhibitory concentration (IC50) is greater than 2 µM.

On to `CCCCCCCCCCc1ccc(-c2noc(CNC(=O)[C@@H]3C[C@@H](O)CN3)n2)cc1` [Compound 9w, (2S,4R)—N-((3-(4-decylphenyl)-1,2,4-oxadiazol-5-yl)methyl)-4-hydroxypyrrolidine-2-carboxamide hydrochloride], for which the IC50 is greater than 2 µM.

Take `CCCCCCCCCCc1ccc(-c2noc(CNC(=O)[C@@H]3C[C@@H](F)CN3)n2)cc1` [Compound 9ae, (2S,4R)—N-((3-(4-decylphenyl)-1,2,4-oxadiazol-5-yl)methyl)-4-fluoropyrrolidine-2-carboxamide hydrochloride]: the IC50 was greater than 2 µM.

Consider `CCCCCCCCCCc1ccc(-c2noc([C@@H]3CC[C@H](N)C3)n2)cc1` [Compound 5d, (1S,3R)-3-(3-(4-decylphenyl)-1,2,4-oxadiazol-5-yl)cyclopentan-1-amine hydrochloride], for which the half-maximal inhibitory concentration (IC50) was greater than 2 µM.

Turning to `CCCCCCCCCCc1ccc(-c2noc(C(=O)NCCN)n2)cc1` [Compound 16a, N-(2-aminoethyl)-3-(4-decylphenyl)-1,2,4-oxadiazole-5-carboxamide hydrochloride], the IC50 was no more than 2 µM.

Take `CCCCCCCCCCc1ccc(-c2noc([C@@H]3CCN(C(=O)[C@@H](N)CO)C3)n2)cc1` [Compound 9aj]: the IC50 is greater than 2 µM.

For the molecule `CCCCCCCCCCc1ccc(-c2noc([C@@H](N)CCCCN)n2)cc1` [Compound 19a, (S)-1-(3-(4-decylphenyl)-1,2,4-oxadiazol-5-yl)pentane-1,5-diamine hydrochloride], the IC50 was no more than 2 µM.

`CCCCCCCCCCc1ccc(-c2noc(CNC(=O)CN(C)C)n2)cc1` [Compound 9ab, N-((3-(4-decylphenyl)-1,2,4-oxadiazol-5-yl)methyl)-2-(dimethylamino)acetamide hydrochloride]: the half-maximal inhibitory concentration (IC50) is greater than 2 µM.

Regarding `CCCCCCCCCCc1ccc(-c2noc(CC(O)CNCC)n2)cc1` (stereo not shown) [Compound 7a, 1-(3-(4-decylphenyl)-1,2,4-oxadiazol-5-yl)-3-(ethylamino)propan-2-ol hydrochloride], the IC50 is greater than 2 µM.

With `CCCCCCCCCCc1ccc(-c2noc(CNC(=O)[C@H]3CNCCO3)n2)cc1` [Compound 9q, (R)—N-((3-(4-decylphenyl)-1,2,4-oxadiazol-5-yl)methyl)morpholine-2-carboxamide hydrochloride], the concentration for half-maximal inhibition (IC50) was greater than 2 µM.

Regarding `CCCCCCCCCCc1ccc(-c2noc(CNC(=O)CCCCN)n2)cc1` [Compound 9g, 5-amino-N-((3-(4-decylphenyl)-1,2,4-oxadiazol-5-yl)methyl)pentanamide hydrochloride], the IC50 was no more than 2 µM.

`CCCCCCCCCCc1ccc(-c2noc(CC[C@@H](N)C(=O)O)n2)cc1` [Compound 5y, (R)-2-amino-4-(3-(4-decylphenyl)-1,2,4-oxadiazol-5-yl)butanoic acid hydrochloride]: the IC50 was greater than 2 µM.

`CCCCCCCCCCc1ccc(-c2noc(C(=O)NCCCN)n2)cc1` [Compound 16b, N-(3-aminopropyl)-3-(4-decylphenyl)-1,2,4-oxadiazole-5-carboxamide hydrochloride]: the IC50 was greater than 2 µM.

For `CCCCCCCCCCc1ccc(-c2noc([C@@H]3CCN(C(=O)[C@H](C)N)C3)n2)cc1` [Compound 9ak, (S)-2-amino-1-((R)-3-(3-(4-decylphenyl)-1,2,4-oxadiazol-5-yl)pyrrolidin-1-yl)propan-1-one 2,2,2-trifluoroacetate], the IC50 is no more than 2 µM.

As to `CCCCCCCCCCc1ccc(-c2noc(CCCN)n2)cc1` [Compound 5e, 3-(3-(4-decylphenyl)-1,2,4-oxadiazol-5-yl)propan-1-amine 2,2,2-trifluoroacetate], the concentration for half-maximal inhibition (IC50) is no more than 2 µM.
